Source: PMC4588877, “Guanine nucleotide exchange factor 2 for Rab5 proteins coordinated with GLUP6/GEF regulates the intracellular transport of the proglutelin from the Golgi apparatus to the protein storage vacuole in rice endosperm” (Journal of Experimental Botany, 2015)

Tests used:
Rab5b = target: T1, Rab5b (Oryza sativa, UniProt Q10RN9); test: GDP/GMP-PNP exchange, Trp intrinsic fluorescence (ex […] nm, em […] nm); format: binding; conditions: 1 µM GST-Rab preloaded with GDP; 0.1 mM GMP-PNP; GST-GLUP6/GEF or GST-Rab5-GEF2 0-1 µM as exchange factor; 20 mM Tris-HCl pH 8.0, 150 mM NaCl, 0.5 mM MgCl2
T1 construct: gene Os03g0151900; GST fusion (pGEX 4T-1), E. coli BL21 (DE3); tag kept
T1 sequence (Q10RN9 1-199): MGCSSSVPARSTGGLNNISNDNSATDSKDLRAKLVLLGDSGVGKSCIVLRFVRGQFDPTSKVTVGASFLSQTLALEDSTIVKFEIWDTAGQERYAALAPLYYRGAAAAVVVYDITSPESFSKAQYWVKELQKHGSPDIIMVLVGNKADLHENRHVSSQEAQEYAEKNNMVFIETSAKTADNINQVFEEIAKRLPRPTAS

Rab5c = target: T2, Rab5c (Oryza sativa, UniProt Q75HA2); test: as above; format: binding; conditions: 1 µM GST-Rab preloaded with GDP; 0.1 mM GMP-PNP; GST-GLUP6/GEF or GST-Rab5-GEF2 0-1 µM as exchange factor; 20 mM Tris-HCl pH 8.0, 150 mM NaCl, 0.5 mM MgCl2
T2 construct: gene Os03g0666500; GST fusion (pGEX 4T-1), E. coli BL21 (DE3); tag kept
T2 sequence (Q75HA2 1-203): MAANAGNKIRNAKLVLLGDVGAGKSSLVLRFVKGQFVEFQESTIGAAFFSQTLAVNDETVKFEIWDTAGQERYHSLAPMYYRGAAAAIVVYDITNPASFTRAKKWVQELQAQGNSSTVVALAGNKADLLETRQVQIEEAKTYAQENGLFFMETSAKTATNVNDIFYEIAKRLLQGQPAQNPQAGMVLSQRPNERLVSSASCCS

GLUP4/Rab5a = target: T3, GLUP4/Rab5a (Oryza sativa, UniProt Q0ILQ6); test: as above; format: binding; conditions: 1 µM GST-Rab preloaded with GDP; 0.1 mM GMP-PNP; GST-Rab5-GEF2 0-1 µM as exchange factor; 20 mM Tris-HCl pH 8.0, 150 mM NaCl, 0.5 mM MgCl2
T3 construct: GST fusion (pGEX 4T-1), E. coli BL21 (DE3); tag kept
T3 sequence (Q0ILQ6 1-203): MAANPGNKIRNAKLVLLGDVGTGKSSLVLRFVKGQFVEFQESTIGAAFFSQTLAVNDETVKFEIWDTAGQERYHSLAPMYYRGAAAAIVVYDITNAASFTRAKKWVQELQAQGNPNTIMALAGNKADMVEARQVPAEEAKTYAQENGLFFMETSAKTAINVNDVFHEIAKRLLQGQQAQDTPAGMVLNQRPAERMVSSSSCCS

GLUP4/Rab5a (rice) = GLUP4/Rab5a (rice) (UniProt Q0ILQ6); test: SPR; BIACORE J; GLUP4/Rab5a immobilised on Sensor Chip CM5; Rab5-GEF2 or GLUP6/GEF (1.5, 3.5, 5, 6.5, 10.5 μM) applied for 120 s at 30 μl/min in 10 mM HEPES-NaOH pH 7.4, 0.15 M NaCl, 0.5 mM MgCl2, 10 mM GDP, 0.1% Triton X-100; apparent KD from association and dissociation curves

Molecule | GDP/GMP-PNP exchange, Trp intrinsic fluorescence (ex 298 nm, em 340 nm) (Rab5b) | GDP/GMP-PNP exchange, Trp intrinsic fluorescence (ex 298 nm, em 340 nm) (Rab5c) | GDP/GMP-PNP exchange, Trp intrinsic fluorescence (ex 298 nm, em 340 nm) (GLUP4/Rab5a) | Kd (GLUP4/Rab5a (rice)) [µM]
Nc1nc2c(ncn2[C@@H]2O[C@H](COP(=O)(O)OP(=O)(O)NP(=O)(O)O)[C@@H](O)[C@H]2O)c(=O)[nH]1 [GMP-PNP] | Rab5b and Rab5c were activated by GLUP6/GEF in a dose-dependent manner | Rab5b and Rab5c were activated by GLUP6/GEF in a dose-dependent manner | Rab5-GEF2 activated GLUP4/Rab5a, the plant-specific Rab5b, and Rab5c in a dose-dependent manner | –
GLUP6/GEF (natural protein) | – | – | – | 2.1
Rab5-GEF2 (natural protein) | – | – | – | 1.7
